Measured values: patent US20240226228A1, “ANTIMICROBIAL PEPTOID HAVING IMPROVED SELECTIVITY AND ANTIMICROBIAL COMPOSITION COMPRISING SAME” (priority 2021, published 2024)
≈ marks a conversion by molar mass, not a printed value. Like-named read-outs stand apart in the source and are kept apart here. Where a SMILES comes first, the peptide text is derived from it. [ ]: non-standard residue; d: D form. Gly(N(CH2)2(3-indolyl)) = O=C(O)CNCCc1c[nH]c2ccccc12; Nspe = C[C@H](NCC(=O)O)c1ccccc1; Nlys = NCCCCNCC(=O)O

Key:
E. coli KCTC 2411 = experiment: MIC in multidrug-resistant bacteria, modified microdilution method; assay type: cell-based; conditions: Table 14
Method: (§1) The MIC of the prepared peptoid in multidrug-resistant bacteria was measured using a modified microdilution method in a Difco Mueller Hinton medium, and a test was performed on a bacterial pathogen panel with resistant and tolerance to general antibiotics.
(§2) Briefly, a medium containing bovine serum albumin and 0.001% acetic acid was used to continuously dilute a peptoid concentrate 10-times stronger than the final concentration. 10 uμL of the 10-time stronger peptoid concentrate and 90 μL of a Muleller Hinton medium were added to each well of a 96-well plate. Bacteria were added to the plate until the final concentration reached 2×10^5 CFU/mL and then incubated at […] overnight. MIC was defined as a concentration at which bacterial growth is not observed.

[1] = tested on: Enterococcus Faecium KCTC 13225; experiment: as above; assay type: cell-based; conditions: Table 14
Method: as §1, §2

P. aeruginosa KCTC 1637 = experiment: as above; assay type: cell-based; conditions: Table 14
Method: as §1, §2

[2] = tested on: Enterobacter SP KCTC 2625; experiment: as above; assay type: cell-based; conditions: Table 14
Method: as §1, §2

[3] = tested on: Enterococcus faecalis KCTC 3511; experiment: as above; assay type: cell-based; conditions: Table 14
Method: as §1, §2

[4] = HPLC to confirm peptoid decomposition after counter ion substitution; assay type: physicochemical; conditions: HPLC at 220 nm; HCl and AcOH
Method: FIGS. 76 to 83 are the HPLC results for Peptoids 1, 10, 11, 14, 15, 29, 32 and 37 of the present inventive concept to confirm the decomposition of the peptoids after counter ion substitution using (a) HCl and (b) AcOH.
Referring to FIGS. […], HPLC was performed for Peptoids 1, 10, 11, 14, 15, 29, 32 and 37 of the present inventive concept. Since the chloride (HCl) is a stronger acid than TFA, it can decompose acid-vulnerable peptoid compounds.

Human lung cells (MRC-5) = experiment: in vitro
Method: (§3) Human lung cells (MRC-5) were purchased from the Korean Cell Line Bank, and human keratinocytes (HaCaT) were purchased from the AmorePacific R&D Center. All cells were grown in a Dulbecco's modified Eagle's medium containing 10% fetal bovine serum under conditions of 5% CO2 and 37° C. To confirm the effect of a peptoid on cell growth, 3-(4,5-dimethylthiazol-2-yl)-5-(3-carboxymethoxyphenyl)-2-(4-sulfophenyl)-2H-tetrazolium (MTS) cell assay was performed to determine cell viability. An aliquot (100 μL) of a batch including 1.3×10^4 MRC-5 cells/mL or 3×10^4 HaCaT cells/mL was dispensed into each well of a 96-well plate. The cells were grown at 37° C. in a 5% CO2 humid atmosphere and allowed to adhere for 24 hours. When the cells reached approximately 70% confluency, the medium was replaced with serial dilutions of the peptoid stock and incubated for 24 hours. 20 μL of a CellTiter 96 aqueous non-radioactive cell proliferation assay reagent (Promega, USA) including a tetrazolium compound was added to each well.
(§4) The contents in the plate were metabolized by incubating at 37° C. for 4 hours. An MTS-formazan product of viable cells was measured at 490 nm using a microplate reader, and cell viability (%) was calculated by Equation 2 below and compared with untreated cells.
(§5) Cell viability (%)=[A/(Acontrol)]×100 [Equation 2]
(§6) In Equation 2, A is the absorbance of a test well, and Acontrol is the average absorbance of a well containing untreated cells.
(§7) The term “nd” shown in Table 19 below is the abbreviation for not determined, and indicates a value that is too small or too large to be measured.

[5] = tested on: human keratinocytes (HaCaT); experiment: in vitro
Method: as §3, §4, §5, §6, §7

in vitro = experiment: in vitro
Method: as §3, §4, §5, §6, §7

S. aureus ATCC 25923 = tested on: S. aureus ATCC 25923
Summary of the method: (§8)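 Cation-adjusted MHB2 cultures (18 h, subcultured 4 h) adjusted to 2×10^5–5×10^5 CFU/mL in medium with 0.02% BSA and 0.001% acetic acid.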

E. coli ATCC25922 = tested on: E. coli ATCC25922
Summary of the method: as §8

red blood cells = experiment: Hemolysis assay; assay type: cell-based, Sprague-Dawley mouse
Summary of the method: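 Peptoid is mixed with 10% (v/v) PBS-washed erythrocytes (male Sprague-Dawley […], 13 weeks) and held 1 h at 37 °C. Hemolysis is calculated from 540 nm absorbance of the supernatant, with PBS as 0% and Triton X-100 as 100%.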

[6] = Table 18, TFA salt vs counter ion-substituted (HCl, AcOH) peptoids
[7] = Tables 11-13, 24 hours at 37° C., maximum concentration 25 μM
[8] = Table 18, TFA salt vs counter ion-substituted peptoids

Compound	MIC E. coli KCTC 2411 (E. coli KCTC 2411) [µM]	MIC Enterococcus Faecium KCTC 13225 [1] [µM]	MIC P. aeruginosa KCTC 1637 (P. aeruginosa KCTC 1637) [µM]	MIC Enterobacter SP KCTC 2625 [2] [µM]	MIC Enterococcus faecalis KCTC 3511 [3] [µM]	peptoid decomposition after counter ion substitution (in words) [4]	lower toxicity against MRC-5 cells compared to the peptoid having a TFA salt (Human lung cells (MRC-5)) [%]	lower toxicity against HaCaT cells compared to the peptoid having a TFA salt [5] [%]	CC50 at 24 h (in vitro; human, LC50 HaCaT) [µM]	MIC S. aureus ATCC 25923 (S. aureus ATCC 25923; [6]) [µM]	MIC S. aureus ATCC 25923 (S. aureus ATCC 25923; [7]) [µM]	MIC E. coli ATCC25922 (E. coli ATCC25922; [6]) [µM]	MIC E. coli ATCC25922 (E. coli ATCC25922; [7]) [µM]	further results
C[C@@H](c1ccccc1)N(CC(=O)N(CCCCN)CC(=O)N(CCc1c[nH]c2ccccc12)CC(=O)N(CCc1c[nH]c2ccccc12)CC(N)=O)C(=O)CN(CCCCN)C(=O)CN(CCCCN)C(=O)CN(C(=O)CN(C(=O)CN(CCCCN)C(=O)CN(C(=O)CN(C(=O)CNCCCCN)[C@@H](C)c1ccccc1)[C@@H](C)c1ccccc1)[C@@H](C)c1ccccc1)[C@@H](C)c1ccccc1 [Peptoid 29, H-NLys-Nspe-Nspe-NLys-Nspe-Nspe-NLys-NLys-Nspe-NLys-NhTrp-NhTrp-NH2] (H-[Nlys][Nspe][Nspe][Nlys][Nspe][Nspe][Nlys][Nlys][Nspe][Nlys][Gly(N(CH2)2(3-indolyl))][Gly(N(CH2)2(3-indolyl))]-NH2)	6.3 (≈ 11.7 µg/mL)	1.6 (≈ 2.98 µg/mL)	50 (≈ 93.2 µg/mL)	3.1 (≈ 5.78 µg/mL)	3.1 (≈ 5.78 µg/mL)	almost no peptoid decomposition occurred	20	20	18.8	12.5	6.3 (≈ 11.7 µg/mL)	6.3	6.3 (≈ 11.7 µg/mL)	–
C[C@@H](c1ccccc1)N(CC(N)=O)C(=O)CN(CCCCN)C(=O)CN(CCCCN)C(=O)CN(C(=O)CN(C(=O)CN(CCCCN)C(=O)CN(C(=O)CN(C(=O)CN(CCCCN)C(=O)CN(CCc1c[nH]c2ccccc12)C(=O)CN(CCc1c[nH]c2ccccc12)C(=O)CNCCCCN)[C@@H](C)c1ccccc1)[C@@H](C)c1ccccc1)[C@@H](C)c1ccccc1)[C@@H](C)c1ccccc1 [Peptoid 32, H-NLys-NhTrp-NhTrp-NLys-Nspe-Nspe-NLys-Nspe-Nspe-NLys-NLys-Nspe-NH2]	6.3 (≈ 11.7 µg/mL)	3.1 (≈ 5.78 µg/mL)	25 (≈ 46.6 µg/mL)	3.1 (≈ 5.78 µg/mL)	6.3 (≈ 11.7 µg/mL)	almost no peptoid decomposition occurred	20	20	17.1	–	3.1 (≈ 5.78 µg/mL)	6.3	6.3 (≈ 11.7 µg/mL)	CC50 at 24 h (in vitro; human, LC50 MRC-5): 14.5 µM; MIC S. aureus ATCC 25923 (S. aureus ATCC 25923; ATCC 25923): 3.1 µM (≈ 5.78 µg/mL)
C[C@@H](c1ccccc1)N(CC(N)=O)C(=O)CN(C(=O)CN(CCCCN)C(=O)CN(C(=O)CN(C(=O)CN(CCCCN)C(=O)CN(C(=O)CN(C(=O)CN(CCCCN)C(=O)CN(C(=O)CN(C(=O)CNCCCCN)[C@@H](C)c1ccccc1)[C@@H](C)c1ccccc1)[C@@H](C)c1ccccc1)[C@@H](C)c1ccccc1)[C@@H](C)c1ccccc1)[C@@H](C)c1ccccc1)[C@@H](C)c1ccccc1 [Peptoid 1, H-NLys-Nspe-Nspe-NLys-Nspe-Nspe-NLys-Nspe-Nspe-NLys-Nspe-Nspe-NH2, reference compound] (H-[Nlys][Nspe][Nspe][Nlys][Nspe][Nspe][Nlys][Nspe][Nspe][Nlys][Nspe][Nspe]-NH2)	6.3 (≈ 11.5 µg/mL)	< 0.8	25 (≈ 45.5 µg/mL)	6.3 (≈ 11.5 µg/mL)	0.8 (≈ 1.46 µg/mL)	almost no peptoid decomposition occurred	–	–	–	1.6	1.6 (≈ 2.91 µg/mL)	6.3	6.3 (≈ 11.5 µg/mL)	HC10 (red blood cells; [8]): 15.9 µM; HC50 (red blood cells; [8]): 49.0 µM; Hmax (100 μM) (red blood cells; [8]): 72.1 ± 2.1%; HC10 (red blood cells; Tables 11-13, concentration that induces hemolysis in 10% red blood cells): 8.3 µM; HC50 (red blood cells; Tables 11-13, concentration that induces hemolysis in 50% red blood cells): 22.9 µM; Hmax (100 μM) (red blood cells; Tables 11-13, hemolysis rate at maximum peptoid concentration): 112.3 ± 0.7%; HD10 (red blood cells; first value of HD10/HD50 cell, hemolysis, in µM): 22.9; Hmax (100 μM) (red blood cells; hemolysis at 100 μM): 75.8; HD50 (red blood cells; second value of HD10/HD50 cell, hemolysis, in µM): 79.0; CC50 at 24 h (in vitro): 7.3 µM; CC50 at 24 h (in vitro; LC50 MRC-5, 24 hours incubation, concentration that causes 50% cell lethality): 8.1 µM; MIC S. aureus ATCC 25923 (S. aureus ATCC 25923; gram-positive bacteria, S. aureus ATCC25923 strain): 1.6 µM (≈ 2.91 µg/mL); MIC E. coli ATCC25922 (E. coli ATCC25922; gram-negative bacteria, E. coli ATCC25922 strain): 3.1 µM (≈ 5.64 µg/mL)
